{
  "source": "PubChem BioAssay AID2060493",
  "about": "(Molecular Pharmacology Branch, DTP, NCI, 2025)",
  "system": "616215-338-R-J1-PDC tumor spheroids, viability",
  "assay": "Anticancer human tumor 616215-338-R-J1-PDC patient-derived colon adenocarcinoma cell line growth inhibition [GQUAD]",
  "details": "spheroids with HUVEC and MSC; for pIC50: curve of first compound; for viability, T/C: stronger effect = lower value",
  "outline": "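Viability of tumor cells grown as complex spheroids with endothelial and stromal cells, exposed to drug combinations. Top concentration at or near clinical Cmax (else 10 microM), diluted in half-log increments.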",
  "key": {"[1]": {"details": "second compound 0.0316 µM, first compound 0.0316 µM"}, "[2]": {"details": "second compound 0.0316 µM, first compound 0.1 µM"}, "[3]": {"details": "second compound 0.0316 µM, first compound 0.316 µM"}, "[4]": {"details": "second compound 0.0316 µM, first compound 1 µM"}, "[5]": {"details": "second compound 0.0316 µM, first compound 3.16 µM"}, "[6]": {"details": "second compound 0.0316 µM, first compound 10 µM"}, "[7]": {"details": "second compound 0.1 µM, first compound 0.0316 µM"}, "[8]": {"details": "second compound 0.1 µM, first compound 0.1 µM"}, "[9]": {"details": "second compound 0.1 µM, first compound 0.316 µM"}, "[10]": {"details": "second compound 0.1 µM, first compound 1 µM"}, "[11]": {"details": "second compound 0.1 µM, first compound 3.16 µM"}, "[12]": {"details": "second compound 0.1 µM, first compound 10 µM"}, "[13]": {"details": "second compound 0.316 µM, first compound 0.0316 µM"}, "[14]": {"details": "second compound 0.316 µM, first compound 0.1 µM"}, "[15]": {"details": "second compound 0.316 µM, first compound 0.316 µM"}, "[16]": {"details": "second compound 0.316 µM, first compound 1 µM"}, "[17]": {"details": "second compound 0.316 µM, first compound 3.16 µM"}, "[18]": {"details": "second compound 0.316 µM, first compound 10 µM"}, "[19]": {"details": "second compound 1 µM, first compound 0.0316 µM"}, "[20]": {"details": "second compound 1 µM, first compound 0.1 µM"}, "[21]": {"details": "second compound 1 µM, first compound 0.316 µM"}, "[22]": {"details": "second compound 1 µM, first compound 1 µM"}, "[23]": {"details": "second compound 1 µM, first compound 3.16 µM"}, "[24]": {"details": "second compound 1 µM, first compound 10 µM"}, "[25]": {"details": "second compound 3.16 µM, first compound 0.0316 µM"}, "[26]": {"details": "second compound 3.16 µM, first compound 0.1 µM"}, "[27]": {"details": "second compound 3.16 µM, first compound 0.316 µM"}, "[28]": {"details": "second compound 3.16 µM, first compound 1 µM"}, "[29]": {"details": "second compound 3.16 µM, first compound 3.16 µM"}, "[30]": {"details": "second compound 3.16 µM, first compound 10 µM"}, "[31]": {"details": "second compound 10 µM, first compound 0.0316 µM"}, "[32]": {"details": "second compound 10 µM, first compound 0.1 µM"}, "[33]": {"details": "second compound 10 µM, first compound 0.316 µM"}, "[34]": {"details": "second compound 10 µM, first compound 1 µM"}, "[35]": {"details": "second compound 10 µM, first compound 3.16 µM"}, "[36]": {"details": "second compound 10 µM, first compound 10 µM"}},
  "note": "pIC50: −log10 of the molar value.",
  "data": [
    {"compound": "CC1COCCN1c1cc(-c2ccnn2C)c2ccnc(-c3ccn[nH]3)c2n1", "note": "(centres undefined) + CN(C)c1ccc(Nc2c3ccc(NC(=O)CCN4CCCC4)cc3nc3cc(NC(=O)CCN4CCCC4)ccc23)cc1;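 further: spheroids exposed to agents for 7 days before readout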;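 on viability, T/C: percent viability relative to DMSO vehicle control wells taken as 100%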", "values": [
      {"measurement": "pIC50", "setting": "second compound 0.0316 µM", "value": 6.80},
      {"measurement": "pIC50", "setting": "second compound 0.1 µM", "value": 6.83},
      {"measurement": "pIC50", "setting": "second compound 0.316 µM", "value": 6.79},
      {"measurement": "pIC50", "setting": "second compound 1 µM", "value": 6.85},
      {"measurement": "pIC50", "setting": "second compound 3.16 µM", "value": 6.89},
      {"measurement": "pIC50", "setting": "second compound 10 µM", "value": 6.89},
      {"measurement": "viability, T/C", "setting": "[1]", "value": 99.1, "unit": "%"},
      {"measurement": "viability, T/C", "setting": "[2]", "value": 61.8, "unit": "%"},
      {"measurement": "viability, T/C", "setting": "[3]", "value": 31.1, "unit": "%"},
      {"measurement": "viability, T/C", "setting": "[4]", "value": 25.6, "unit": "%"},
      {"measurement": "viability, T/C", "setting": "[5]", "value": 18.4, "unit": "%"},
      {"measurement": "viability, T/C", "setting": "[6]", "value": 21.6, "unit": "%"},
      {"measurement": "viability, T/C", "setting": "[7]", "value": 94.4, "unit": "%"},
      {"measurement": "viability, T/C", "setting": "[8]", "value": 58.5, "unit": "%"},
      {"measurement": "viability, T/C", "setting": "[9]", "value": 33.5, "unit": "%"},
      {"measurement": "viability, T/C", "setting": "[10]", "value": 21.2, "unit": "%"},
      {"measurement": "viability, T/C", "setting": "[11]", "value": 21.6, "unit": "%"},
      {"measurement": "viability, T/C", "setting": "[12]", "value": 22.4, "unit": "%"},
      {"measurement": "viability, T/C", "setting": "[13]", "value": 93, "unit": "%"},
      {"measurement": "viability, T/C", "setting": "[14]", "value": 65.4, "unit": "%"},
      {"measurement": "viability, T/C", "setting": "[15]", "value": 29.1, "unit": "%"},
      {"measurement": "viability, T/C", "setting": "[16]", "value": 23.1, "unit": "%"},
      {"measurement": "viability, T/C", "setting": "[17]", "value": 20.7, "unit": "%"},
      {"measurement": "viability, T/C", "setting": "[18]", "value": 18.6, "unit": "%"},
      {"measurement": "viability, T/C", "setting": "[19]", "value": 90.1, "unit": "%"},
      {"measurement": "viability, T/C", "setting": "[20]", "value": 55.5, "unit": "%"},
      {"measurement": "viability, T/C", "setting": "[21]", "value": 38.1, "unit": "%"},
      {"measurement": "viability, T/C", "setting": "[22]", "value": 22.6, "unit": "%"},
      {"measurement": "viability, T/C", "setting": "[23]", "value": 18.8, "unit": "%"},
      {"measurement": "viability, T/C", "setting": "[24]", "value": 25.7, "unit": "%"},
      {"measurement": "viability, T/C", "setting": "[25]", "value": 91.7, "unit": "%"},
      {"measurement": "viability, T/C", "setting": "[26]", "value": 55.6, "unit": "%"},
      {"measurement": "viability, T/C", "setting": "[27]", "value": 30.2, "unit": "%"},
      {"measurement": "viability, T/C", "setting": "[28]", "value": 23.8, "unit": "%"},
      {"measurement": "viability, T/C", "setting": "[29]", "value": 22.2, "unit": "%"},
      {"measurement": "viability, T/C", "setting": "[30]", "value": 16.7, "unit": "%"},
      {"measurement": "viability, T/C", "setting": "[31]", "value": 88.4, "unit": "%"},
      {"measurement": "viability, T/C", "setting": "[32]", "value": 53.8, "unit": "%"},
      {"measurement": "viability, T/C", "setting": "[33]", "value": 35.8, "unit": "%"},
      {"measurement": "viability, T/C", "setting": "[34]", "value": 24.2, "unit": "%"},
      {"measurement": "viability, T/C", "setting": "[35]", "value": 19.7, "unit": "%"},
      {"measurement": "viability, T/C", "setting": "[36]", "value": 18.5, "unit": "%"}
    ]},
    {"compound": "CC1COCCN1c1cc(C2(O)CC3CCC(C2)O3)c2cnn(-c3ccn[nH]3)c2n1", "note": "(centres undefined) + CN(C)c1ccc(Nc2c3ccc(NC(=O)CCN4CCCC4)cc3nc3cc(NC(=O)CCN4CCCC4)ccc23)cc1", "values": [
      {"measurement": "pIC50", "setting": "second compound 0.0316 µM", "value": 6.74},
      {"measurement": "pIC50", "setting": "second compound 0.1 µM", "value": 6.67},
      {"measurement": "pIC50", "setting": "second compound 0.316 µM", "value": 6.71},
      {"measurement": "pIC50", "setting": "second compound 1 µM", "value": 6.70},
      {"measurement": "pIC50", "setting": "second compound 3.16 µM", "value": 6.65},
      {"measurement": "pIC50", "setting": "second compound 10 µM", "value": 6.86},
      {"measurement": "viability, T/C", "setting": "[1]", "value": 98.6, "unit": "%"},
      {"measurement": "viability, T/C", "setting": "[2]", "value": 63.5, "unit": "%"},
      {"measurement": "viability, T/C", "setting": "[3]", "value": 38.5, "unit": "%"},
      {"measurement": "viability, T/C", "setting": "[4]", "value": 24, "unit": "%"},
      {"measurement": "viability, T/C", "setting": "[5]", "value": 15.5, "unit": "%"},
      {"measurement": "viability, T/C", "setting": "[6]", "value": 18.4, "unit": "%"},
      {"measurement": "viability, T/C", "setting": "[7]", "value": 102, "unit": "%"},
      {"measurement": "viability, T/C", "setting": "[8]", "value": 72.7, "unit": "%"},
      {"measurement": "viability, T/C", "setting": "[9]", "value": 34.7, "unit": "%"},
      {"measurement": "viability, T/C", "setting": "[10]", "value": 30.3, "unit": "%"},
      {"measurement": "viability, T/C", "setting": "[11]", "value": 20.8, "unit": "%"},
      {"measurement": "viability, T/C", "setting": "[12]", "value": 15.2, "unit": "%"},
      {"measurement": "viability, T/C", "setting": "[13]", "value": 94.3, "unit": "%"},
      {"measurement": "viability, T/C", "setting": "[14]", "value": 64.7, "unit": "%"},
      {"measurement": "viability, T/C", "setting": "[15]", "value": 36.4, "unit": "%"},
      {"measurement": "viability, T/C", "setting": "[16]", "value": 31.9, "unit": "%"},
      {"measurement": "viability, T/C", "setting": "[17]", "value": 17.3, "unit": "%"},
      {"measurement": "viability, T/C", "setting": "[18]", "value": 15.3, "unit": "%"},
      {"measurement": "viability, T/C", "setting": "[19]", "value": 95.4, "unit": "%"},
      {"measurement": "viability, T/C", "setting": "[20]", "value": 72.5, "unit": "%"},
      {"measurement": "viability, T/C", "setting": "[21]", "value": 34.3, "unit": "%"},
      {"measurement": "viability, T/C", "setting": "[22]", "value": 24.1, "unit": "%"},
      {"measurement": "viability, T/C", "setting": "[23]", "value": 24.4, "unit": "%"},
      {"measurement": "viability, T/C", "setting": "[24]", "value": 11.7, "unit": "%"},
      {"measurement": "viability, T/C", "setting": "[25]", "value": 99.5, "unit": "%"},
      {"measurement": "viability, T/C", "setting": "[26]", "value": 67.2, "unit": "%"},
      {"measurement": "viability, T/C", "setting": "[27]", "value": 41.3, "unit": "%"},
      {"measurement": "viability, T/C", "setting": "[28]", "value": 28.4, "unit": "%"},
      {"measurement": "viability, T/C", "setting": "[29]", "value": 25.2, "unit": "%"},
      {"measurement": "viability, T/C", "setting": "[30]", "value": 13.2, "unit": "%"},
      {"measurement": "viability, T/C", "setting": "[31]", "value": 84.7, "unit": "%"},
      {"measurement": "viability, T/C", "setting": "[32]", "value": 55.2, "unit": "%"},
      {"measurement": "viability, T/C", "setting": "[33]", "value": 35.2, "unit": "%"},
      {"measurement": "viability, T/C", "setting": "[34]", "value": 27.1, "unit": "%"},
      {"measurement": "viability, T/C", "setting": "[35]", "value": 24.2, "unit": "%"},
      {"measurement": "viability, T/C", "setting": "[36]", "value": 13.4, "unit": "%"}
    ]}
  ]
}
